Patent US8372845B2, “Pyrazine derivatives as enac blockers” (Novartis AG, priority 2010, dated 2013)

Key:
[1] = Stability in human plasma; assay type: in vitro ADME; conditions: pooled human plasma (lithium heparin), 1 μM compound, 37° C., 1 hour incubation
Protocol: The stability of the compounds of the invention in human plasma may be measured as follows:
Stability in Human Plasma
Blood was taken from healthy volunteers in lithium heparin tubes and plasma was prepared by centrifugal separation of blood cells at 1500 g. Plasma from at least 3 individuals was pooled and used for compound stability determination.
Compounds were prepared in 100% DMSO at a concentration of 10 mM and serially diluted to a concentration of 100 μM. Incubations were performed at a final concentration of 1 μM and were initiated by addition of 3 μl of 100 μM compound stock solution into 297 μl plasma, pre-warmed in a water bath to 37° C., followed by brief vortex mixing. 50 μl aliquots of plasma were removed at 4 timepoints over a 1 hour incubation period and quenched immediately by protein precipitation achieved by addition of the aliquot of plasma to a pre-prepared 96 well plate containing 150 μl of acetonitrile containing an appropriate internal standard. Acetonitrile quenched samples were vortex mixed followed by centrifugation for 20 minutes at 1500 g to remove the precipitated proteins. Initial compound levels (at time=0 minutes) was established by spiking compound into pre-quenched plasma at the same concentration as used in the incubation. The supernatant was then removed, diluted 1:1 with water and analysed for compound remaining by liquid chromatography-tandem mass spectrometry (Waters Acquity HPLC, Applied Biosystems API4000). The plasma elimination rate constant of the compound was calculated by fitting the peak area ratio of compound:internal standard to an exponential decay function and the half life calculated by division of the natural log of 2 by the elimination rate constant (Microsoft Excel).

[2] = biological target: T1, epithelial sodium channel (ENaC) (Homo sapiens, UniProt P37088+P51168+P51170); experiment: Short circuit current (ISC) measurements in Human Bronchial Epithelial cells (HBEC-ENaC); assay type: cell-based; conditions: inhibition of amiloride-sensitive ISC, HBECs at air-liquid interface, Ussing chamber, apical addition
T1 construct: host or cells: primary Human Bronchial Epithelial cells (HBECs), differentiated at air-liquid interface
T1 sequence (P37088 1-669): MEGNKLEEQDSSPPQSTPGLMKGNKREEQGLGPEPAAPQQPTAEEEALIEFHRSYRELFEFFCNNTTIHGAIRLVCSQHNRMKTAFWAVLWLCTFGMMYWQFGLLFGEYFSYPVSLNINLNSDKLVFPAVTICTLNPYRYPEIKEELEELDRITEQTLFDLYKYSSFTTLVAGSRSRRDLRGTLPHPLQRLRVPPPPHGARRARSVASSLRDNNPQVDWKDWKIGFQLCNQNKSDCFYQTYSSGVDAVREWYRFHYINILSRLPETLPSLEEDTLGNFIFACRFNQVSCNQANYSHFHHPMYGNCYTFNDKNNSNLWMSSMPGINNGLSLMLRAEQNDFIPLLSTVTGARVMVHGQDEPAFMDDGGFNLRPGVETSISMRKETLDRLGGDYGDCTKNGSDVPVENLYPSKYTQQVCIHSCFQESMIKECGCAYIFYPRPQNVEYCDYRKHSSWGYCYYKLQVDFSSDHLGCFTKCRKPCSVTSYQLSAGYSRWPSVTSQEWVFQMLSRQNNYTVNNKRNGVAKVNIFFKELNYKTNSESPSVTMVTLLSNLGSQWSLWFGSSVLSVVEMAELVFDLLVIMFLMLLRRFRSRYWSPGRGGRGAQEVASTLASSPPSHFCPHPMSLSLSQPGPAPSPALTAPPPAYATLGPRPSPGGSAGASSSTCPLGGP
T1 sequence (P51168 1-640): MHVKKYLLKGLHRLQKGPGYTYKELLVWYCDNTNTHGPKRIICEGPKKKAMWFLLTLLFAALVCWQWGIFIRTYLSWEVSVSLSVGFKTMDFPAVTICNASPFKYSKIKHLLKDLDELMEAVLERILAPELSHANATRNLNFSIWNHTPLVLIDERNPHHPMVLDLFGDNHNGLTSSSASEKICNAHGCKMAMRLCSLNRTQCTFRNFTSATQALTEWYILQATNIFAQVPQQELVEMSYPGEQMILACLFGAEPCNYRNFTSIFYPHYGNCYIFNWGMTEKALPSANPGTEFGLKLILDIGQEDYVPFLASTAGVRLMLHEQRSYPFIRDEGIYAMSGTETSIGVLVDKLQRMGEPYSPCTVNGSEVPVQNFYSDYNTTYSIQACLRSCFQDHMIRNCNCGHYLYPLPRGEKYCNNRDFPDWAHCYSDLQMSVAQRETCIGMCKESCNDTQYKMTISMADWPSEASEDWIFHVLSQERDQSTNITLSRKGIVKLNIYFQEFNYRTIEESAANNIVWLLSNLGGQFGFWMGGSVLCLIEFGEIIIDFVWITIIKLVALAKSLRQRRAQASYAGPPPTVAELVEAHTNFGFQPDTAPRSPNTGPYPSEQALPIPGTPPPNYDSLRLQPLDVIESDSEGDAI
T1 sequence (P51170 1-649): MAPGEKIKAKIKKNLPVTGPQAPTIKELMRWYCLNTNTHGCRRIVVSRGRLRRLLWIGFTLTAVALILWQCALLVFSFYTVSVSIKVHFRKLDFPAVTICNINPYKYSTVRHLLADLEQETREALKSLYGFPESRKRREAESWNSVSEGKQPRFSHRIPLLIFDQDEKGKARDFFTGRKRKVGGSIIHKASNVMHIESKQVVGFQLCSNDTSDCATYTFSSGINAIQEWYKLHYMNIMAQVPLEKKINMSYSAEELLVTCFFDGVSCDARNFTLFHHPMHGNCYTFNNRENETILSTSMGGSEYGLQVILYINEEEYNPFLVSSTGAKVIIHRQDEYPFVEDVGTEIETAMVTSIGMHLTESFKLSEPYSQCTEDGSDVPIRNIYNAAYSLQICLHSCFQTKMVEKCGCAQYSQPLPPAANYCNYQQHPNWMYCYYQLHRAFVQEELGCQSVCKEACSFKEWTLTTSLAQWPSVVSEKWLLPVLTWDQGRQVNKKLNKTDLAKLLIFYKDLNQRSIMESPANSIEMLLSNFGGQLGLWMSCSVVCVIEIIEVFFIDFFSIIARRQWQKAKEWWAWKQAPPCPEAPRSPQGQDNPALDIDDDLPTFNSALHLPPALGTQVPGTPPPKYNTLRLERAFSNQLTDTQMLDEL
Protocol: Human Bronchial Epithelial cells (HBECs) (Cambrex) were cultured under air-liquid interface conditions to provide a well differentiated mucociliary phenotype.
Medium was changed every 48 hours until cells were 90% confluent. […] Cells were maintained submerged for the first 7 days in culture, after which time they were exposed to an apical air interface for the remainder of the culture period. At this time, media was changed to DMEM:F12 media containing 2% v/v Ultroser G for the remainder of culture. Amphotericin B was removed from all media 3 feeds prior to use in the Ussing Chambers. Cells were used between days 7 and 21 after establishment of the apical-air interface. At all stages of culture, cells were maintained at 37° C. in 5% CO2 in an air incubator.
Short Circuit Current (ISC) Measurements
Snapwell inserts were mounted in Vertical Diffusion Chambers (Costar) and were bathed with continuously gassed Ringer solution (5% CO2 in O2; pH 7.4) maintained at 37° C. containing (in mM): 120 NaCl, 25 NaHCO3, 3.3 KH2PO4, 0.8 K2HPO4, 1.2 CaCl2, 1.2 MgCl2, and 10 glucose. The solution osmolarity was between 280 and 300 mOsmol/kg H2O for all physiological salt solutions used. Cells were voltage clamped to 0 mV (model EVC4000; WPI). RT was measured by applying a 1- or 2-mV pulse at 30-s intervals and calculating RT by Ohm's law. Data were recorded using a PowerLab workstation (ADInstruments).
Test compounds were prepared as a 10 mM stock solution in DMSO (95%). Serial 3-fold dilutions were freshly prepared in an appropriate vehicle (distilled H2O or Ringers solution). The initial concentration was added to the apical chamber as a 1000× concentrate in 5 μL, resulting in a final 1× concentration the 5 mL volume of the Ussing chamber. Subsequent additions of compound were added in a 3.3 μL volume of the 1000× serially diluted stock solution. At the completion of the concentration-response experiment, amiloride (10 μM) was added into the apical chamber to enable the total amiloride-sensitive current to be measured. An amiloride control IC50 was established at the start of each experiment.
Results are expressed as the mean % inhibition of the amiloride-sensitive ISC. […] Cell inserts were typically run in duplicate and the IC50 calculated on the mean % inhibition data.

Row | Compound | half-life at 1 μM [1] [min] | IC50 [2] [nM]
1 | Nc1nc(N)c(C(=O)/N=C2\NCC3(CCN(C(=O)CCc4ccc(OCC(=O)OCC(=O)OC5CCCCC5)cc4)CC3)N2)nc1Cl [Example 1.2, [4-(3-{2-[(E)-3,5-Diamino-6-chloro-pyrazine-2-carbonylimino]-1,3,8-triaza-spiro[4.5]dec-8-yl}-3-oxo-propyl)-phenoxy]-acetic acid cyclohexyl oxycarbonylmethyl ester] | 3 | 10
2 | CCCN(CCC)C(=O)COC(=O)C1(CNS(=O)(=O)c2cccc(C(=O)N3CCC4(CC3)CN/C(=N\C(=O)c3nc(Cl)c(N)nc3N)N4)c2)CCC1 [Example 5.0, 1-[(3-{2-[(E)-3,5-Diamino-6-chloro-pyrazine-2-carbonylimino]-1,3,8-triaza-spiro[4.5]decane-8-carbonyl}-benzenesulfonylamino)-methyl]-cyclobutanecarboxylic acid dipropylcarbamoylmethyl ester] | 5 | 12
3 | CCCN(CCC)C(=O)COC(=O)COc1ccc(CCC(=O)N2CCC3(CC2)CN/C(=N\C(=O)c2nc(Cl)c(N)nc2N)N3)cc1 [Example 2.0, [4-(3-{2-[(E)-3,5-Diamino-6-chloro-pyrazine-2-carbonylimino]-1,3,8-triaza-spiro[4.5]dec-8-yl}-3-oxo-propyl)-phenoxy]-acetic acid dipropylcarbamoylmethyl ester] | 1 | 32
4 | CCCN(CCC)C(=O)COC(=O)CCNC(=O)Nc1cccc(C(=O)N2CCC3(CC2)CN/C(=N\C(=O)c2nc(Cl)c(N)nc2N)N3)c1 [Example 5.1, 3-[3-(3-{2-[(E)-3,5-Diamino-6-chloro-pyrazine-2-carbonylimino]-1,3,8-triaza-spiro[4.5]decane-8-carbonyl}-phenyl)-ureido]-propionic acid dipropylcarbamoylmethyl ester] | 2 | 31
5 | CCCN(CCC)C(=O)COC(=O)COc1ccc(CCC(=O)N2CCC3(CC2)CN/C(=N\C(=O)c2nc(Cl)c(N)nc2N)N3)cc1Cl [Example 3.0, [2-Chloro-4-(3-{2-[(E)-3,5-diamino-6-chloro-pyrazine-2-carbonylimino]-1,3,8-triaza-spiro[4.5]dec-8-yl}-3-oxo-propyl)-phenoxy]-acetic acid dipropylcarbamoylmethyl ester] | 2 | 11
6 | Nc1nc(N)c(C(=O)/N=C2\NCC3(CCN(C(=O)CCc4ccc(OCC(=O)OCC(=O)N5CCOCC5)cc4)CC3)N2)nc1Cl [Example 4.2, [4-(3-{2-[(E)-3,5-Diamino-6-chloro-pyrazine-2-carbonylimino]-1,3,8-triaza-spiro[4.5]dec-8-yl}-3-oxo-propyl)-phenoxy]-acetic acid 2-morpholin-4-yl-2-oxo-ethyl ester] | 4 | 450
7 | CC(C)(C)OC(=O)COC(=O)COc1ccc(CCC(=O)N2CCC3(CC2)CN/C(=N\C(=O)c2nc(Cl)c(N)nc2N)N3)cc1 [Example 2.1, [4-(3-{2-[(E)-3,5-Diamino-6-chloro-pyrazine-2-carbonylimino]-1,3,8-triaza-spiro[4.5]dec-8-yl}-3-oxo-propyl)-phenoxy]-acetic acid tert-butoxycarbonylmethyl ester] | 5 | 30
